Structures are written as SMILES. The source made the active and inactive calls. The rule behind the calls is not given here.

Drawing on PubChem BioAssay AID1329 (NMMLSC, 2008), this text covers percent span for 92 compounds.

The assay has as its target Induced myeloid leukemia cell differentiation protein Mcl-1 (Homo sapiens) (UniProt Q07820). The assay can be described thus: Mcl-1/Bim interaction regulators – biochemical, bead-based flow cytometry, multiplexed, human, dose response (AID 1329). The following applies: Bim peptide-Mcl-1 binding, MCF.

Sequence of Induced myeloid leukemia cell differentiation protein Mcl-1 (Homo sapiens) (Q07820 whole entry, looked up): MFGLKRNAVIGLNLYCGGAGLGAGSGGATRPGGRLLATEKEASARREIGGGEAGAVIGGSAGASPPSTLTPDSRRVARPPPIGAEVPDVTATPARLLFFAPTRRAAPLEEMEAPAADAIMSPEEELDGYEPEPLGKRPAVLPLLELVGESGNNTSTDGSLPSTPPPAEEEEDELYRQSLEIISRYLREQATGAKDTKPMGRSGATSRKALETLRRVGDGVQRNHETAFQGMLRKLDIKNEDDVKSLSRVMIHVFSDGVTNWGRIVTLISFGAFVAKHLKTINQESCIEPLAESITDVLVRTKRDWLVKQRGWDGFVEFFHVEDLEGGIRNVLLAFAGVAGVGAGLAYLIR

Regarding `O=C1c2ccccc2-c2onc3ccc(NCc4ccco4)c1c23`, the percent span result is “inactive”.

`CCN(CC)c1ccc(NC(=O)c2cccc(C)c2)cc1S(=O)(=O)Nc1ccccc1OC`: the percent span result was “inactive”. For the compound `CC1C=CCC2C(=O)N(c3ccc(OC(=O)c4cccs4)cc3)C(=O)C12` (configuration not stated), the percent span entry was “inactive”. To `Cc1cccc(-c2nnc3n2N=C(c2ccccc2)CS3)c1` belongs “inactive”; to `CN(C)C(Cc1ccccc1)C(=O)c1cccs1` (configuration not stated), “inactive”; to `CCOC(=O)c1ccc(N=c2ssnc2Cl)cc1`, “inactive”. To `CCOc1cc(/C=N/NC(N)=O)ccc1OCC(=O)Nc1ccc(C)c(C)c1` belongs “inactive”; to `O=C(CCl)Nc1cccc2ncccc12`, “inactive”; to `O=C(COc1ccccc1Br)NCc1ccccn1`, “inactive”. To `CCc1nnc(NS(=O)(=O)c2ccc(N=CC3=C(O)CC(C)(C)CC3=O)cc2)s1` belongs “inactive”; to `CCCCC(=O)Nc1ccc(C(=O)N2CCC(C(=O)OCC)CC2)cc1`, “inactive”.

Consider `CC(=O)OCCCNc1cc(Sc2nc3ccccc3s2)c2nonc2c1[N+](=O)[O-]`, for which the percent span entry was “inactive”. `COc1ccc2nc(-c3ccco3)c(-c3ccco3)nc2c1`: the percent span result is “inactive”. Then `CN1CCN(c2ccccc2N)CC1`, with “inactive”; and `CCOC(=O)c1cccc(Nc2ncnc3ccccc23)c1`, with “inactive”; and `O=C(Cc1ccccc1)N/N=C/c1cccn1-c1ccc([N+](=O)[O-])cc1`, with “inactive”. Consider `Cc1nonc1NC(=O)CSc1nnc(-c2ccoc2C)n1C`, for which the percent span entry is “inactive”. To `COc1cc(OC)c([N+](=O)[O-])cc1/C=N/NC(=O)c1ccncc1` belongs “inactive”; to `CCCCNC(=O)c1ccc2nc(-c3ccco3)c(-c3ccco3)nc2c1`, “inactive”. To `Cc1ccc(-c2cc(C(=O)Nc3ccccn3)c3ccccc3n2)o1` belongs “inactive”; to `Cc1cccc(Nc2nc(-c3ccncc3)cs2)c1`, “inactive”. Then `CCOC(=O)c1c(NC(=O)c2ccccc2N(C)S(=O)(=O)c2ccccc2)sc2c1CCCC2`, with “inactive”. Consider `O=C(O)C1=C[C@H](C2CC2)C[C@H](OCCCCO)O1`, for which the percent span entry was “inactive”.

In the case of `C=CS(=O)(=O)c1sc(Cl)c(N2CCOCC2)c1[N+](=O)[O-]`, the percent span result was “inactive”. Regarding `COc1cccc(NC(=O)CSc2nncn2N)c1`, the percent span result was “inactive”.

As for `OCCC1CN(Cc2nc3c(s2)CCCC3)CCN1Cc1ccsc1` (configuration not stated), the percent span entry was “inactive”. In the case of `CCNC(=O)N1c2ccc(OCC)cc2C(C)=CC1(C)C`, the percent span entry is “inactive”.

For the compound `N/C(Cc1ccc(Cl)c(Cl)c1)=N\OC(=O)c1cccs1`, the percent span entry is “inactive”.

Take `CNc1ccccc(C(=O)/C=C/c2ccccc2OC)c1=O`: the percent span entry was “inactive”. Then `O=C(O)c1ccc(NC2=C/C(=N/S(=O)(=O)c3ccccc3)c3ccccc3C2=O)cc1`, with “inactive”; and `COc1ccccc1Oc1ccc2c(c1)C(=O)N(c1cccc3ncccc13)C2=O`, with “inactive”; and `COc1cc(/C=C2\SC(=S)NC2=O)ccc1OS(=O)(=O)c1ccccc1`, with “inactive”. `CC1=C2C(CCS2(=O)=O)CC2(C1)C(=O)OC(C)(C)OC2=O` (configuration not stated): the percent span result was “inactive”.

With `CNc1ccc(Br)cc(C(=O)/C=C/c2cccc(OC)c2)c1=O`, the percent span entry is “inactive”.

As for `Cc1sc(NC(=O)Cn2cnnn2)nc1-c1ccc(Cl)cc1`, the percent span entry was “inactive”. Then `COc1ccc(NC(=O)c2cccs2)cc1`, with “inactive”.

With `O=C(NCCN1CCOCC1)c1cc(Cl)ccc1[N+](=O)[O-]`, the percent span result is “inactive”. To `C#CCOCCOCCOCCNc1nc(N2CCN(C(=O)[C@H](CCCCN)n3cc(CCCC)nn3)CC2)nc(N2CCN(C(=O)[C@H](Cc3ccc(O)cc3)n3cc(CCO)nn3)CC2)n1` belongs “inactive”; to `CCOc1ccc(C2=Nn3c(nnc3-c3ccccn3)SC2)cc1`, “inactive”. To `CN(Cc1ccccc1)C(=O)c1[nH]cnc1C(=O)N[C@@H](CCCCNC(=O)OC(C)(C)C)C(=O)OC(C)(C)C` belongs “inactive”.

For the compound `c1ccc(C2=Nc3cccc4cccc(c34)N2)cc1`, the percent span entry is “inactive”. As for `CCOC(=O)N1CCC(c2cc(=O)n(-c3ccccc3)[nH]2)CC1`, the percent span result is “inactive”.

With `Cc1ccc2c(c1)C1CN(C)CCC1N2C(=O)Nc1cccc(Cl)c1` (configuration not stated), the percent span result was “inactive”. Regarding `O=C(N/N=C/c1cccnc1)c1cccc(S(=O)(=O)N2CCCC2)c1`, the percent span result is “inactive”.

For the compound `Cn1c(=O)c(C(=O)COC(=O)c2cc(-c3ccco3)nc3ccccc23)c(N)n(Cc2ccccc2)c1=O`, the percent span result was “inactive”. In the case of `Cc1c(N=C2C=CC(=O)c3ccccc32)c(=O)n(-c2ccccc2)n1C`, the percent span entry was “inactive”. As for `CCN(CC)c1ccc(Nc2nc(N3CCOCC3)c3ccccc3n2)cc1`, the percent span entry was “inactive”. To `Cn1cc(CN2C[C@]3(C)C[C@H]2CC(C)(C)C3)c(-c2ccc3c(c2)OCCO3)n1` belongs “inactive”; to `CC(=O)c1ccc(NC(=O)c2ccc3nc(-c4ccco4)c(-c4ccco4)nc3c2)cc1`, “inactive”. Consider `O=C(O)c1cccc(NC2=C(Cl)C(=O)c3ccccc3C2=O)c1`, for which the percent span entry was “inactive”. Consider `Cc1ccc(C)c(/C=C/C(=O)c2ccccc(=O)c2O)c1`, for which the percent span result is “inactive”. Regarding `CCNC(=S)Nc1cc(OCC)c(NC(=O)c2cccs2)cc1OCC`, the percent span entry was “inactive”. Then `Cc1cc(C)nc(/N=c2/ssnc2Cl)c1`, with “inactive”. To `CC(CCc1ccccc1)NC(=O)C1CCN(S(=O)(=O)N2CCCCC2)CC1` (configuration not stated) belongs “inactive”; to `Cc1ccc(/C=C/C2=Cc3c(sc(NC(=O)CSc4n[nH]c(N)n4)c3C#N)C(C)(C)C2)o1`, “inactive”. Then `CCn1c(C)nc2cc(C(=O)N/N=C/c3ccc(O)c(O)c3O)ccc21`, with “inactive”.

In the case of `COC(=O)c1ccc(/C=N/NC(=O)CC(=O)NCc2cccnc2)cc1`, the percent span result was “inactive”.

For `COc1ccc(NC(=O)c2ccc3c(c2)NC(=O)CS3)cc1S(=O)(=O)Nc1ccc(Br)cc1`, the percent span result was “inactive”. To `Nc1c(C(=O)NCc2ccco2)sc2nc3c(cc12)C(=O)CCC3` belongs “inactive”. To `O=C1c2ccccc2C(=O)N1c1cccc2cccnc12` belongs “inactive”; to `Cc1nc2scc(-c3ccccc3)c2c(=O)n1N=C1C=CC(=O)C=C1`, “inactive”. Then `CCOc1cccc(CNc2ccc(O)cc2)c1OCc1ccc(Cl)cc1`, with “inactive”; and `COc1cc(C2Nc3cccc4cccc(c34)N2)cc(OC)c1O`, with “inactive”.

`O=C(Cc1ccc(-c2ccccc2)cc1)NC1CCCC1`: the percent span entry is “inactive”.

Take `Cc1ccc(-c2cc(C(=O)OCC(=O)N(C)C3CCS(=O)(=O)C3)c3ccccc3n2)o1` (configuration not stated): the percent span result was “inactive”. Then `Cc1ccc(-n2nc(C)c(C(=O)O)n2)c(C)c1`, with “inactive”; and `CCN(CC)C(=O)COC(=O)c1cc(-c2ccco2)nc2ccccc12`, with “inactive”. Consider `CC1Cc2ccccc2N1C(=O)c1ccc(N2CCCC2)c([N+](=O)[O-])c1` (configuration not stated), for which the percent span result was “inactive”. Turning to `CCN1CCN(c2cc(C)c3cc(NC(=S)N4CCN(c5ccc(F)cc5)CC4)ccc3n2)CC1`, the percent span entry was “inactive”. Then `O=C(CC1NCCNC1=O)Nc1cccc([N+](=O)[O-])c1` (configuration not stated), with “inactive”; and `COc1cccc(-n2nnnc2SCC(=O)Nc2cccc(NC(C)=O)c2)c1`, with “inactive”. To `c1ccc(-c2nc(N3CCCCC3)nc3ccccc23)cc1` belongs “inactive”; to `COC(=O)Cc1cc(=O)[nH]c(Nc2nc3ccccc3o2)n1`, “inactive”. In the case of `Cc1ccc(-c2c3c([nH]c(=S)c2C#N)CCCC3)o1`, the percent span entry is “inactive”. As for `Cc1ccc(NC(=O)c2cc(S(=O)(=O)NCCC3=CCCCC3)ccc2F)cc1F`, the percent span entry is “inactive”.

Turning to `O=C1c2ccccc2C(=O)N1CN(C(=O)COc1ccc(Cl)cc1Cl)c1cccc(F)c1`, the percent span result is “inactive”. Consider `O=C(Nc1ccc2nc(-c3ccco3)c(-c3ccco3)nc2c1)NC1CC1`, for which the percent span result was “inactive”.

On to `COc1ccc(C2(NC(C)=O)CCN(C(=O)c3ccco3)CC2)cc1`, for which the percent span result is “inactive”. To `CN=c1scc(C)n1/N=C/c1ccc(O)c(O)c1O` belongs “inactive”; to `COc1ccc(C2CN(C)CC2C(=O)c2ccc(F)cc2)cc1Cl` (configuration not stated), “inactive”. Then `S=C(NCCc1ccccc1)NCCc1ccccc1`, with “inactive”. As for `O=C(O)c1ccccc1NSc1ccccc1[N+](=O)[O-]`, the percent span entry was “inactive”.

For the compound `N#CC(C#N)=C1C=CC=CN1/C(=C\c1ccco1)C(=O)c1ccccc1`, the percent span result is “inactive”. For `CCCn1c(C)cc(-c2csc(N)n2)c1C`, the percent span entry was “inactive”.

Consider `S=C1NC2=C(CCC/C2=C\c2ccccc2)C(c2ccccc2)N1` (configuration not stated), for which the percent span result is “inactive”. To `CC(NC(=O)Nc1ccccn1)N1C(=O)C2C3C=CC(C3)C2C1=O` (configuration not stated) belongs “inactive”; to `CNCc1ccccc1Sc1cc(O)ccc1O`, “inactive”; to `O=C(COC(=O)c1ccccn1)NC1CCCCC1`, “inactive”. To `C1=CC2c3ccccc3NC(c3ccncc3)C2C1` (configuration not stated) belongs “inactive”; to `COc1cccc2c(SCC(=O)N/N=C/c3ccccc3)cc(C)nc12`, “inactive”.

In the case of `CC1CC2=C(NC(=S)NC2c2ccccc2F)/C(=C/c2ccccc2F)C1` (configuration not stated), the percent span result is “inactive”. Turning to `O=C1/C(=C/c2cccs2)Sc2ccccc21`, the percent span entry is “inactive”.
